Measured values: patent publication US9113629B2, “4-amino-6-(4-substituted-phenyl)-picolinates and 6-amino-2-(4-substituted-phenyl)-pyrimidine-4-carboxylates and their use as herbicides” (DOW AGROSCIENCES LLC, priority 2013, dated 2015)
Read-outs that look alike come from different tables or passages of the source.

Tests used:
[1] = test system: Key Grass and Sedge Weeds as well as Grass Crops; experiment: Post-emergent Test II herbicidal activity (Table 6); format: in vivo; details: post-emergence, 336 h; for pest or weed control at 70 g/ha: 70 g ai/ha; for pest or weed control at 140 g/ha: 140 g ai/ha
Summary of the method: (§1)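 Greenhouse-grown plants at first or second true leaf stage were sprayed post-emergence with compound in acetone/DMSO-based aqueous spray containing crop oil concentrate and surfactant, at 187 L/ha, highest rate plus ½× to 1/16× dilutions. After 14 d, injury was scored visually versus untreated plants, 0 (none) to 100% (complete kill).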

[2] = test system: Key Broadleaf Weed and Crop Species; experiment: Post-emergent Test II herbicidal activity (Table 5); format: in vivo; details: post-emergence, 336 h, 14 days after application; for pest or weed control at 70 g/ha: application rate 70 g ai/ha; for pest or weed control at 140 g/ha: application rate 140 g ai/ha
Summary of the method: as §1

[3] = CYPES: yellow nutsedge (Cyperus esculentus), read-out: Visual Growth Reduction (%) 14 Days After Application, CYPES
[4] = DIGSA: crabgrass (Digitaria sanguinalis), read-out: Visual Growth Reduction (%) 14 Days After Application, DIGSA
[5] = ECHCG: barnyardgrass (Echinochloa crus-galli), read-out: Visual Growth Reduction (%) 14 Days After Application, ECHCG
[6] = ORYSA: rice (Oryza sativa), crop, read-out: Visual Growth Reduction (%) 14 Days After Application, ORYSA
[7] = SETFA: giant foxtail (Setaria faberi), read-out: Visual Growth Reduction (%) 14 Days After Application, SETFA
[8] = SORVU: grain sorghum (Sorghum vulgare), read-out: Visual Growth Reduction (%) 14 Days After Application, SORVU
[9] = TRZSS (wheat, Triticum aestivum), crop, read-out: Visual Growth Reduction (%) 14 Days After Application, TRZSS
[10] = ZEAMX: maize, corn (Zea mays), crop, read-out: Visual Growth Reduction (%) 14 Days After Application, ZEAMX
[11] = ABUTH: velvetleaf (Abutilon theophrasti), read-out: Visual Growth Reduction (%) 14 Days After Application, ABUTH
[12] = AMARE: redroot pigweed (Amaranthus retroflexus), read-out: Visual Growth Reduction (%) 14 Days After Application, AMARE
[13] = BRSNN: oilseed-rape, canola (Brassica napus), read-out: Visual Growth Reduction (%) 14 Days After Application, BRSNN
[14] = CHEAL: lambsquarters (Chenopodium album), read-out: Visual Growth Reduction (%) 14 Days After Application, CHEAL
[15] = EPHHL: wild poinsettia (Euphorbia heterophylla), read-out: Visual Growth Reduction (%) 14 Days After Application, EPHHL
[16] = HELAN: sunflower (Helianthus annuus), read-out: Visual Growth Reduction (%) 14 Days After Application, HELAN
[17] = VIOTR: wild pansy (Viola tricolor), read-out: Visual Growth Reduction (%) 14 Days After Application, VIOTR

Compound: C#Cc1ccc(-c2nc(C(=O)O)c(Cl)c(N)c2F)c(F)c1 [Compound 108]
- melting point: 165 to 175 °C (dec.)
- pest or weed control at 70 g/ha [1, 3]: 45 to 59%
- pest or weed control at 140 g/ha [1, 3]: 30 to 44%
- pest or weed control at 70 g/ha [1, 4]: 60 to 74%
- pest or weed control at 140 g/ha [1, 4]: 60 to 74%
- pest or weed control at 70 g/ha [1, 5]: 45 to 59%
- pest or weed control at 140 g/ha [1, 5]: 75 to 84%
- pest or weed control at 70 g/ha [1, 6]: 0 to 29%
- pest or weed control at 140 g/ha [1, 6]: 0 to 29%
- pest or weed control at 70 g/ha [1, 7]: 45 to 59%
- pest or weed control at 140 g/ha [1, 7]: 30 to 44%
- pest or weed control at 70 g/ha [1, 8]: 0 to 29%
- pest or weed control at 140 g/ha [1, 8]: 30 to 44%
- pest or weed control at 70 g/ha [1, 9]: 30 to 44%
- pest or weed control at 140 g/ha [1, 9]: 30 to 44%
- pest or weed control at 70 g/ha [1, 10]: 0 to 29%
- pest or weed control at 140 g/ha [1, 10]: 45 to 59%
- pest or weed control at 70 g/ha [2, 11]: 45 to 59%
- pest or weed control at 140 g/ha [2, 11]: 75 to 84%
- pest or weed control at 70 g/ha [2, 12]: 75 to 84%
- pest or weed control at 140 g/ha [2, 12]: 95 to 100%
- pest or weed control at 70 g/ha [2, 13]: 85 to 94%
- pest or weed control at 140 g/ha [2, 13]: 85 to 94%
- pest or weed control at 70 g/ha [2, 14]: 60 to 74%
- pest or weed control at 140 g/ha [2, 14]: 75 to 84%
- pest or weed control at 70 g/ha [2, 15]: 85 to 94%
- pest or weed control at 140 g/ha [2, 15]: 95 to 100%
- pest or weed control at 70 g/ha [2, 16]: 85 to 94%
- pest or weed control at 140 g/ha [2, 16]: 95 to 100%
- pest or weed control at 70 g/ha [2, 17]: 0 to 29%
- pest or weed control at 140 g/ha [2, 17]: 45 to 59%

Compound: C#Cc1ccc(-c2nc(C(=O)OC)c(Cl)c(N)c2F)c(F)c1 [Compound 121]
- melting point: 186 to 188 °C
- pest or weed control at 70 g/ha [1, 3]: 45 to 59%
- pest or weed control at 140 g/ha [1, 3]: 45 to 59%
- pest or weed control at 70 g/ha [1, 4]: 0 to 29%
- pest or weed control at 140 g/ha [1, 4]: 0 to 29%
- pest or weed control at 70 g/ha [1, 5]: 0 to 29%
- pest or weed control at 140 g/ha [1, 5]: 0 to 29%
- pest or weed control at 70 g/ha [1, 6]: 0 to 29%
- pest or weed control at 140 g/ha [1, 6]: 0 to 29%
- pest or weed control at 70 g/ha [1, 7]: 0 to 29%
- pest or weed control at 140 g/ha [1, 7]: 0 to 29%
- pest or weed control at 70 g/ha [1, 8]: 45 to 59%
- pest or weed control at 140 g/ha [1, 8]: 60 to 74%
- pest or weed control at 70 g/ha [1, 9]: 0 to 29%
- pest or weed control at 140 g/ha [1, 9]: 0 to 29%
- pest or weed control at 70 g/ha [1, 10]: 95 to 100%
- pest or weed control at 140 g/ha [1, 10]: 95 to 100%
- pest or weed control at 70 g/ha [2, 11]: 85 to 94%
- pest or weed control at 140 g/ha [2, 11]: 85 to 94%
- pest or weed control at 70 g/ha [2, 12]: 0 to 29%
- pest or weed control at 140 g/ha [2, 12]: 0 to 29%
- pest or weed control at 70 g/ha [2, 13]: 85 to 94%
- pest or weed control at 140 g/ha [2, 13]: 95 to 100%
- pest or weed control at 70 g/ha [2, 14]: 75 to 84%
- pest or weed control at 140 g/ha [2, 14]: 95 to 100%
- pest or weed control at 70 g/ha [2, 15]: 45 to 59%
- pest or weed control at 140 g/ha [2, 15]: 95 to 100%
- pest or weed control at 70 g/ha [2, 16]: 85 to 94%
- pest or weed control at 140 g/ha [2, 16]: 95 to 100%
- pest or weed control at 70 g/ha [2, 17]: 0 to 29%
- pest or weed control at 140 g/ha [2, 17]: 0 to 29%
